Measured values published in patent US6790833B2, “Antifungal and antibacterial agents” (priority 2001, dated 2004).
pEC50: −log10 of the molar value. “Also recorded” adds a separate entry of the source.

Key:
C. albicans [1] = assay: Antifungal (cidal) activity assay, loss of cell viability; type: cell-based, Candida albicans; settings: for ED50 (95% confidence limit) C. albicans: Example 2, 1.5 hours, 37°, 10 mM Na phosphate buffer pH 7.4; for Loss of Cell viability (%): 6.25 μM
Description: (§1) Azole-sensitive (# 2-76) and azole-resistant (# 12-99) clinical isolates of C. albicans were a gift from Dr. Theodore C. White (University of Washington and Seattle Biomedical Research Institute, Seattle, Wash.). An azole-sensitive Candida glabrata (C. glabrata) was purchased from ATCC (ATCC 90030) and its azole-resistant counterpart, clinical isolate 65C, was obtained from Dr. John E. Bennett (National Institute of Allergy and Infectious Diseases, Bethesda, Md.). A clinical isolate of Candida krusei (C. krusei) was obtained from the Erie County Medical Center, Buffalo, N.Y. Amphotericin B-sensitive (CN2) and -resistant (CN2843) C. neoformans strains were obtained from AIDS patients with cryptococcal meningitis and were generously provided by Dr. John H. Rex (University of Texas Medical School, Houston, Tex.). Additionally, Saccharomyces cerevisiae (S. serevisiae) strain S288C was provided by Dr. D. Kosman, Department of Biochemistry, University at Buffalo, the State University of New York. All fungi were streaked and grown on SAB plates at 37° C., except S. cerevisiae, which was grown at 30° C. until large colonies were formed. One colony was then picked and resuspended in Na phosphate buffer (pH 7.4) and the concentration was adjusted to 1×10^5 cell/ml for the antifungal assay described below.
(§2) Two fold serial dilutions of each peptide (ranging from 100 μM down to 1.5625 μM) in 20 μl of 10 mM Na phosphate buffer, pH 7.4, were incubated with an equal volume of bacterial or fungal strain (10^5 cells/ml) for 1.5 hours at 30° C. for S. cerevisiae and 37° C. for the rest of strains tested. At the end of incubation, the samples were diluted 20 fold and aliquots (˜120 cells) of each sample were plated on appropriate plates depending on the strain tested, as indicated above. Plates were incubated for 1 to 7 days aerobically or anaerobically, depending on the strain tested. Colonies were then counted, and the loss of cell viability was plotted as a function of protein concentration. Fungicidal activities against C. albicans and C. neoformans were also tested at 4° C.
(§3) To test the effect of inhibitors of oxidative phosphorylation in the mitochondrial system on peptide-induced killing, C. albicans and C. neoformans (CN2) were preincubated with either 20 mM sodium azide or 300 μM CCCP for 2 hours at 37° C. The cidal assays were then carried out as described above. In separate control experiments, both inhibitors were evaluated for their toxicity toward C. albicans and C. neoformans (CN2) in the absence of peptides. At these concentrations, neither compound had any cidal effect. In addition, the fungicidal activities of MUC7 20-mer and Hsn-5 (25 μM) in 10 mM Na phosphate buffer (pH 7.4) in the presence of varying concentrations (1-50 mM) of Ca^++ (as CaCl2) or Mg^++ (as MgCl2) were examined.
(§4) A time course study of peptide-induced killing was statistically analyzed by student t-test.
(§5) Two fold serial dilutions of each peptide (ranging from 50 or 25 μM down to 1.5625 μM) in 20 μl of 10 mM Na phosphate buffer, pH 7.4, were incubated with an equal volume of fungal strain (10^5 cells/ml, also in Na phosphate buffer) for 1.5 hours at 37°. At the end of incubation, the samples were diluted 20 fold with the same buffer and aliquots (˜150 cells) of each sample were plated on SAB plates. Plates were incubated for 1 to 2 days for C. albicans and C. neoformans, respectively. Colonies were then counted, and the loss of cell viability was plotted as a function of protein concentration. The statistical analysis was as described in Example 1.

C. neoformans [2] = assay: as above; type: cell-based, Cryptococcus neoformans; settings: for ED50 (95% confidence limit) C. neoformans: Example 2, 1.5 hours, 37°, 10 mM Na phosphate buffer pH 7.4; for Loss of Cell viability (%): 6.25 μM
Description: as §1, §2, §3, §4, §5

A. actinomycetemcomitans = assay: Antibacterial (cidal) activity assay, loss of cell viability; type: cell-based, Actinobacillus actinomycetemcomitans
Description: (§6) The following bacterial strains were tested: Streptococcus mutans (S. mutans) GS-5, Streptococcus gordonii (S. gordonii) Challis, Escherichia coli (E. coli) HB101, Pseudomonas aeruginosa (P. aeruginosa) ATCC 17648, Actinobacillus actinomycetemcomitans (A. actinomycetemcomitans) NCTC9710, Porphyromonas gingivalis (P. gingivalis) 381 and W50. S. mutans, S. gordonii, A. actinomycetemcomitans and P. aeruginosa were grown anaerobically by candle jar extinction at 37° C. on TSB plates. P. gingivalis was grown in anaerobic chamber at 37° C. on sheep blood agar plates. E. coli was grown aerobically at 37° C. on LB agar plates.
as §2, with “Plates were incubated for 1 to 7 days aerobically or anaerobically, depending on the strain tested.” left out, “Fungicidal activities against C. albicans and C. neoformans were also tested at 4° C.” left out
as §4

S. mutans = assay: as above; type: cell-based; settings: Streptococcus mutans, read-out: ED50 (95% confident limit)
Description: as §6
as §2, with “Plates were incubated for 1 to 7 days aerobically or anaerobically, depending on the strain tested.” left out, “Fungicidal activities against C. albicans and C. neoformans were also tested at 4° C.” left out
as §4

C. albicans [3] = assay: Fluorescence light and confocal microscopy, internalization of FITC-labeled peptide; type: cell-based, Candida albicans; settings: 50 μM, 45-90 minutes, 37° C.
Description: (§7) The internalization of MUC7 20-mer into fungi was visualized in C. albicans and C. neoformans. Untreated cells (10^7) or cells preincubated with 20 mM sodium azide, 300 μM CCCP, 50 mM Ca^++ or 50 mM Mg^++ were then treated with 50 μM FITC-MUC7 20-mer for 45-90 minutes in 100 μl of Na phosphate buffer (10 mM, pH 7.4) at 37° C. Untreated cells were also incubated with 50 μM FITC-MUC7 20-mer at 4° C. The cells were then extensively washed with phosphate buffer, concentrated and resuspended in the same buffer. The cell suspension was then quickly mounted on slides with sealed cover-slips. Fluorescence light micrographs were made on a Nikon Optiphot microscope, with a fluorescent light source.
(§8) The intracellular localization of FITC-MUC7-20mer was investigated in a double-labeling experiment using MitoTracker Red mitochondrial probe. C. albicans and C. neoformans were incubated with 500 nM MitoTracker Red in 10 mM Na phosphate buffer, pH 7.4 for 15 minutes at room temperature, washed three times with the same buffer, and subsequently incubated with 50 μM FITC-MUC7 20-mer. After 20 min. incubation at 37° C., the suspension was washed with phosphate buffer extensively. The cell suspension was then quickly mounted on slides with sealed cover-slips. Confocal fluorescence microscopy was performed with a BioRad MRC-1024 confocal microscope system with Krypton-argon laser which outputs 488, 568 and 647 nm excitation line and Nikon upright epifluorescence microscope (Zeiss 60× oil immersion planApp objective with 1.4 numerical aperture).
(§9) The internalization of MUC7 20-mer and 12-mer-3 into fungi was visualized using FITC labeled peptides. Cells (10^7) were treated with 50 μM FITC-MUC7 20-mer or 12-mer-3 for 45-90 mins in 100 μl of Na phosphate buffer (10 mM, pH 7.4) at 37° C. The cells were then processed and visualized as described in Example 1.

C. neoformans [4] = assay: as above; type: cell-based, Cryptococcus neoformans; settings: 50 μM, 45-90 minutes, 37° C.
Description: as §7, §8, §9

fungi or bacteria = assay: Antifungal and antibacterial activity assays, overall statements; type: cell-based
Description: as §2, §4

12-mer with both cysteines replaced by alanine, SEQ ID NO.13: RKSYKALHKRAR (OTHER INFORMATION: 12-mer-4 variant of the 12-mer) [Peptide 12-mer-4]
ED50 (95% confidence limit) C. albicans (C. albicans [1]): did not alter 12-mer antifungal activity | ED50 (95% confidence limit) C. neoformans (C. neoformans [2]): did not alter 12-mer antifungal activity

[H]/N=C(/N)N[C@H]1[C@H](O)[C@@H](O)[C@H](O[C@@H]2O[C@@H](C)[C@](O)(C=O)[C@H]2O[C@@H]2O[C@@H](CO)[C@H](O)[C@@H](O)[C@@H]2NC)[C@@H](N/C(N)=N\[H])[C@@H]1O [streptomycin]
pEC50 (A. actinomycetemcomitans; Aggregatibacter actinomycetemcomitans, read-out: ED50 (95% confident limit)): 5.57 | pEC50 (S. mutans): 4.19

12-mer with arginine and lysine at position 40 and 41 replaced by alanine, SEQ ID NO.11: AASYKCLHKRCR (OTHER INFORMATION: 12-mer-2 variant of the 12-mer) [Peptide 12-mer-2]
ED50 (95% confidence limit) C. neoformans (C. neoformans [2]): comparable to that of unaltered 12-mer

12-mer with positions 40, 41, 44, 48, 49 and 51 replaced by alanine, SEQ ID NO.12: AASYACLHAACA (OTHER INFORMATION: 12-mer-3 variant of the 12-mer) [Peptide 12-mer-3]
ED50 (95% confidence limit) C. albicans (C. albicans [1]): no anticandidal activity | ED50 (95% confidence limit) C. neoformans (C. neoformans [2]): cidal activity was diminished; also recorded: No activity | internalization of FITC-labeled peptide (C. albicans [3]): No internalization | internalization of FITC-labeled peptide (C. neoformans [4]): No internalization

from the N-terminus of the 20-mer (amino acids 32-39), SEQ ID NO.10: LAHQKPFI (OTHER INFORMATION: 8-mer-N; Amino acids 32-3 9 of the MUC7D1 peptide.) [Peptide 8-mer-N]
ED50 (95% confidence limit) C. albicans (C. albicans [1]): No activity | ED50 (95% confidence limit) C. albicans (C. albicans [1]; listed as N-terminal 8-mer): no antifungal activity | ED50 (95% confidence limit) C. neoformans (C. neoformans [2]): No activity | ED50 (95% confidence limit) C. neoformans (C. neoformans [2]; listed as N-terminal 8-mer): no antifungal activity | antibacterial activity (fungi or bacteria): did not exhibit antibacterial activity

C[C@H](NC(=O)[C@H](Cc1cnc[nH]1)NC(=O)[C@H](CO)NC(=O)[C@@H](N)CC(=O)O)C(=O)N[C@@H](CCCCN)C(=O)N[C@@H](CCCNC(=N)N)C(=O)N[C@@H](Cc1cnc[nH]1)C(=O)N[C@@H](Cc1cnc[nH]1)C(=O)NCC(=O)N[C@@H](Cc1ccc(O)cc1)C(=O)N[C@@H](CCCCN)C(=O)N[C@@H](CCCNC(=N)N)C(=O)N[C@@H](CCCCN)C(=O)N[C@@H](Cc1ccccc1)C(=O)N[C@@H](Cc1cnc[nH]1)C(=O)N[C@@H](CCC(=O)O)C(=O)N[C@@H](CCCCN)C(=O)N[C@@H](Cc1cnc[nH]1)C(=O)N[C@@H](Cc1cnc[nH]1)C(=O)N[C@@H](CO)C(=O)N[C@@H](Cc1cnc[nH]1)C(=O)N[C@@H](CCCNC(=N)N)C(=O)NCC(=O)N[C@@H](Cc1ccc(O)cc1)C(=O)O [Hsn-5, reference compound]
effect of pretreatment with CCCP or sodium azide on peptide-induced killing (C. albicans [1]; C. albicans, 300 μM CCCP or 20 mM sodium azide, 2 hours): rescued Candida cells from killing | potency at 4° C. (C. albicans [1]; C. albicans, 4° C.): limited potency | Loss of Cell viability (%) (C. albicans [1]; C. albicans, 5 min): 0 + 0% | Loss of Cell viability (%) (C. albicans [1]; C. albicans, 15 min): 1 + 3% | Loss of Cell viability (%) (C. albicans [1]; C. albicans, 30 min): 11 + 4% | Loss of Cell viability (%) (C. albicans [1]; C. albicans, 45 min): 34 + 2% | Loss of Cell viability (%) (C. albicans [1]; C. albicans, 90 min): 42 + 3% | Peptide-induced killing without the cations (C. albicans [1]; C. albicans, Na phosphate buffer, 25 μM): 100% | effect of pretreatment with CCCP or sodium azide on peptide-induced killing (C. neoformans [2]; C. neoformans, 300 μM CCCP or 20 mM sodium azide, 2 hours): unable to do the same | activity at 4° C. (C. neoformans [2]; C. neoformans, 4° C.): hardly affected | Loss of Cell viability (%) (C. neoformans [2]; C. neoformans, 5 min): 9 ± 2% | Loss of Cell viability (%) (C. neoformans [2]; C. neoformans, 15 min): 43 + 3% | Loss of Cell viability (%) (C. neoformans [2]; C. neoformans, 30 min): 59 + 5% | Loss of Cell viability (%) (C. neoformans [2]; C. neoformans, 45 min): 64 + 1% | Loss of Cell viability (%) (C. neoformans [2]; C. neoformans, 90 min): 71 + 7% | Peptide-induced killing without the cations (C. neoformans [2]; C. neoformans, Na phosphate buffer, 25 μM): 100% | loss of cell viability at the highest concentration tested (A. actinomycetemcomitans; 100 μM): 24% | concentration for killing bacteria relative to killing fungi (fungi or bacteria): more than 10 fold

12-mer (amino acids 40-51 of MUC7D1), SEQ ID NO.6: RKSYKCLHKRCR (OTHER INFORMATION: 12-mer; Amino acids 40-51 of the MUC7D1 peptide.) [Peptide 12-mer]
cidal activity against fungi or bacteria (fungi or bacteria): active against a variety of fungi and bacteria
